Bounds are passed on as bounds.

One may read the IC50 as the point on the concentration scale where inhibition reaches its midpoint.

For one test, the system named is amyloid β production in transfected H4 (human neuroglioma) cells stably expressing APP constructs. As to the kind of experiment: In vitro cell-based assay of inhibitors of amyloid β production (ELISA). Conditions: Homo sapiens, 16 h, transfected H4 cells expressing APP, approximately 16 hours incubation, amyloid β in medium by ELISA; read-out: ACTIVITY (IC50, inhibition of amyloid β production). In short, it runs like this:
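Cells expressing wild-type or variant APP were plated ≥6 h before medium was replaced with compound-containing medium (initial screen 10-100 μM) and incubated ~16 h. Secreted Aβ in medium was quantified by sandwich ELISA (C-terminal-specific mouse monoclonal capture, N-terminal rabbit polyclonal detection) against an Aβ standard curve.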
(In general: An ELISA detects its analyte on a solid surface through an enzyme-linked reagent.)
For the compound `CCNC(=O)OCC(C)N(c1cc(Cl)ccc1CO)S(=O)(=O)c1ccc(Cl)cc1` (centres unmarked) [Example 1279], the IC50 was at most 25 nM.

Take `CNC(=O)OC[C@@H](C)N(c1cc(Cl)ccc1CO)S(=O)(=O)c1ccc(Cl)cc1` [Example 1280]: the half-maximal inhibitory concentration (IC50) is at most 25 nM.

Take `CCCNC(=O)OC[C@@H](C)N(c1cc(Cl)ccc1CO)S(=O)(=O)c1ccc(Cl)cc1` [Example 1281]: the IC50 is at most 25 nM.

For `C[C@H](COC(=O)NC(C)(C)C)N(c1cc(Cl)ccc1CO)S(=O)(=O)c1ccc(Cl)cc1` [Example 1282], the 50% inhibitory concentration (IC50) was at most 25 nM.

As to `CCN(CC)C(=O)OC[C@@H](C)N(c1cc(Cl)ccc1CO)S(=O)(=O)c1ccc(Cl)cc1` [Example 1283], the half-maximal inhibitory concentration (IC50) is at most 25 nM.

For the compound `C[C@H](COC(=O)NC1CCCCC1)N(c1cc(Cl)ccc1CO)S(=O)(=O)c1ccc(Cl)cc1` [Example 1284], the IC50 is at most 25 nM.

In the case of `C[C@H](COC(=O)NCCCn1ccnc1)N(c1cc(Cl)ccc1CO)S(=O)(=O)c1ccc(Cl)cc1` [Example 1285], the IC50 is at most 25 nM.

As for `CC(C)NC(=O)OC[C@@H](C)N(c1cc(Cl)ccc1CO)S(=O)(=O)c1ccc(Cl)cc1` [Example 1286], the IC50 is at most 25 nM.

In the case of `C[C@H](COC(=O)N1CCCC1)N(c1cc(Cl)ccc1CO)S(=O)(=O)c1ccc(Cl)cc1` [Example 1287], the IC50 is at most 25 nM.

Turning to `CC(CCOC(=O)NCCCn1ccnc1)N(c1cc(Cl)ccc1CO)S(=O)(=O)c1ccc(Cl)cc1` (centres unmarked) [Example 1289], the IC50 was at most 25 nM.

With `C[C@H](CCCOC(=O)NCCCn1ccnc1)N(c1cc(Cl)ccc1CO)S(=O)(=O)c1ccc(Cl)cc1` [Example 1290], the half-maximal inhibitory concentration (IC50) was above 500 nM.

As for `CC(CCOC(=O)NCCn1ccnc1)N(c1cc(Cl)ccc1CO)S(=O)(=O)c1ccc(Cl)cc1` (centres unmarked) [Example 1291], the concentration for half-maximal inhibition (IC50) is at most 25 nM.

Consider `C[C@H](CCCOC(=O)NCCn1ccnc1)N(c1cc(Cl)ccc1CO)S(=O)(=O)c1ccc(Cl)cc1` [Example 1292], for which the IC50 was above 10000 nM.

In the case of `C[C@H](COC(=O)NCCn1ccnc1)N(c1cc(Cl)ccc1CO)S(=O)(=O)c1ccc(Cl)cc1` [Example 1293], the IC50 was above 10000 nM.

In the case of `C[C@H](COC(=O)NCCCn1cnnn1)N(c1cc(Cl)ccc1F)S(=O)(=O)c1ccc(Cl)cc1` [Example 1294], the half-maximal inhibitory concentration (IC50) was at most 25 nM.

`C[C@H](COC(=O)NCCCn1ncnn1)N(c1cc(Cl)ccc1F)S(=O)(=O)c1ccc(Cl)cc1` [Example 1295]: the half-inhibitory concentration (IC50) is at most 25 nM.

`CCN(CCCn1ccnc1)C(=O)OC[C@@H](C)N(c1cc(Cl)ccc1CO)S(=O)(=O)c1ccc(Cl)cc1` [Example 1296]: the half-inhibitory concentration (IC50) is above 10000 nM.

Staying with this test, now noted: Homo sapiens, 16 h, transfected H4 cells stably expressing APP constructs; approximately 16 hours incubation; amyloid β in medium by ELISA; read-out: ACTIVITY (IC50, inhibition of amyloid β production).
Consider `CCCC(c1cc(F)ccc1[C@@H](C)N(c1cc(F)ccc1F)S(=O)(=O)c1ccc(Cl)cc1)N1CCS(=O)(=O)C(C)C1` (stereo partly drawn) [Example 1278, (R)-4-Chloro-N-(2,5-difluorophenyl)-N-[1-[4-fluoro-2-[1-(1,1-dioxo-2-methyl-4-thiomorpholinyl)butyl]phenyl]ethyl]benzenesulfonamide], for which the half-maximal inhibitory concentration (IC50) was at most 25 nM.

Still in this test, the particulars now being: transfected H4 cells stably expressing APP constructs; approximately 16 hours incubation; amyloid β in medium by ELISA; read-out: ACTIVITY (IC50, inhibition of amyloid β production).
With `COC(=O)[C@@H](NC(=O)CCCC[C@@H](C)N(c1cc(Cl)ccc1F)S(=O)(=O)c1ccc(Cl)cc1)C(C)C` [Example 1261, (R)-4-Chloro-N-(5-chloro-2-fluorophenyl)-N-[6-[N-(S)-[1-(methoxycarbonyl)-2-methylpropyl]amino]-1-methyl-6-oxohexyl]benzenesulfonamide], the IC50 was at most 25 nM.

Regarding `CC(C)[C@H](NC(=O)CCCC[C@@H](C)N(c1cc(Cl)ccc1F)S(=O)(=O)c1ccc(Cl)cc1)C(=O)O` [Example 1262, (R)-4-Chloro-N-(5-chloro-2-fluorophenyl)-N-[6-[N-(S)-[1-(carboxy)-2-methylpropyl]amino]-1-methyl-6-oxohexyl]benzenesulfonamide], the half-inhibitory concentration (IC50) was at most 25 nM.

Consider `CC(C)C[C@H](NC(=O)CCCC[C@@H](C)N(c1cc(Cl)ccc1F)S(=O)(=O)c1ccc(Cl)cc1)C(=O)O` [Example 1263, (R)-4-Chloro-N-(5-chloro-2-fluorophenyl)-N-[6-[N-(S)-[1-(carboxy)-3-methylbutyl]amino]-1-methyl-6-oxohexyl]benzenesulfonamide], for which the IC50 is 25 to 50 nM.

Take `COC(=O)[C@@H](NC(=O)CCC[C@@H](C)N(c1cc(Cl)ccc1F)S(=O)(=O)c1ccc(Cl)cc1)C(C)C` [Example 1264, (R)-4-Chloro-N-(5-chloro-2-fluorophenyl)-N-[5-[N-(S)-[1-(methoxycarbonyl)-2-methylpropyl]amino]-1-methyl-6-oxopentyl]benzenesulfonamide]: the IC50 was in the range of 100 to 500 nM.

As to `COC(=O)[C@H](CC(C)C)NC(=O)CCC[C@@H](C)N(c1cc(Cl)ccc1F)S(=O)(=O)c1ccc(Cl)cc1` [Example 1265, (R)-4-Chloro-N-(5-chloro-2-fluorophenyl)-N-[6-[N-(S)-[1-(methoxycarbonyl)-3-methylbutyl]amino]-1-methyl-5-oxopentyl]benzenesulfonamide], the IC50 lay within 50 to 100 nM.

Regarding `COC(=O)[C@H](NC(=O)CCC[C@@H](C)N(c1cc(Cl)ccc1F)S(=O)(=O)c1ccc(Cl)cc1)C(C)C` [Example 1266, (R)-4-Chloro-N-(5-chloro-2-fluorophenyl)-N-[5-[N-(R)-[1-(methoxycarbonyl)-2-methylpropyl]amino]-1-methyl-5-oxopentyl]benzenesulfonamide], the IC50 was at most 25 nM.

`COC(=O)[C@@H](CC(C)C)NC(=O)CCC[C@@H](C)N(c1cc(Cl)ccc1F)S(=O)(=O)c1ccc(Cl)cc1` [Example 1267, (R)-4-Chloro-N-(5-chloro-2-fluorophenyl)-N-[5-[N-(R)-[1-(methoxycarbonyl)-3-methylbutyl]amino]-1-methyl-5-oxopentyl]benzenesulfonamide]: the IC50 is 25 to 50 nM.

As to `CC(C)[C@H](NC(=O)CCC[C@@H](C)N(c1cc(Cl)ccc1F)S(=O)(=O)c1ccc(Cl)cc1)C(=O)O` [Example 1268, (R)-4-Chloro-N-(5-chloro-2-fluorophenyl)-N-[5-[N-(S)-[1-(carboxy)-2-methylpropyl]amino]-1-methyl-5-oxopentyl]benzenesulfonamide], the 50% inhibitory concentration (IC50) was in the range of 100 to 500 nM.

As to `CC(C)[C@@H](NC(=O)CCC[C@@H](C)N(c1cc(Cl)ccc1F)S(=O)(=O)c1ccc(Cl)cc1)C(=O)O` [Example 1270, (R)-4-Chloro-N-(5-chloro-2-fluorophenyl)-N-[5-[N-(R)-[1-(carboxy)-2-methylpropyl]amino]-1-methyl-5-oxopentyl]benzenesulfonamide], the IC50 lay within 25 to 50 nM.

With `CC(C)C[C@@H](NC(=O)CCC[C@@H](C)N(c1cc(Cl)ccc1F)S(=O)(=O)c1ccc(Cl)cc1)C(=O)O` [Example 1271, (R)-4-Chloro-N-(5-chloro-2-fluorophenyl)-N-[5-[N-(R)-[1-(carboxy)-3-methylbutyl]amino]-1-methyl-5-oxopentyl]benzenesulfonamide], the IC50 fell in the range of 50 to 100 nM.

On to `CC1CN(C(=O)CCCC[C@@H](C)N(c2cc(Cl)ccc2F)S(=O)(=O)c2ccc(Cl)cc2)CCS1(=O)=O` (some centres unmarked) [Example 1272], for which the IC50 was at most 25 nM.

For the compound `CC1CS(=O)(=O)CCN1C(=O)CCCC[C@@H](C)N(c1cc(Cl)ccc1F)S(=O)(=O)c1ccc(Cl)cc1` (some centres unmarked) [Example 1273], the IC50 is at most 25 nM.

Regarding `CC1CN(CCCCC[C@@H](C)N(c2cc(Cl)ccc2F)S(=O)(=O)c2ccc(Cl)cc2)CCS1(=O)=O` (some centres unmarked) [Example 1274], the half-inhibitory concentration (IC50) is at most 25 nM.

As for `CC1CS(=O)(=O)CCN1CCCCC[C@@H](C)N(c1cc(Cl)ccc1F)S(=O)(=O)c1ccc(Cl)cc1` (some centres unmarked) [Example 1275], the concentration for half-maximal inhibition (IC50) was at most 25 nM.

The values are drawn from patent US6967196B1, “Sulfonamide compounds and uses thereof” (Bristol-Myers Squibb Company, priority 1999, dated 2005).
